From patent publication US20060229299A1, “5ht2c Receptor antagonists in the treatment of schizophrenia” (priority 2003, published 2006)

Key:
5-HT6 receptor = 5-HT6 receptor (Rattus norvegicus, UniProt P31388); conditions: cited from earlier work
5-HT2C/D2 = 5-HT2C/D2 receptor affinity ratio; type: binding, human; conditions: Table 2; affinity ratio from data of Table 1
[1] = target: M1 muscarinic acetylcholine receptor (Homo sapiens, UniProt P11229); conditions: expressed as KD; cited from earlier work
Sequence of M1 muscarinic acetylcholine receptor (P11229 whole entry): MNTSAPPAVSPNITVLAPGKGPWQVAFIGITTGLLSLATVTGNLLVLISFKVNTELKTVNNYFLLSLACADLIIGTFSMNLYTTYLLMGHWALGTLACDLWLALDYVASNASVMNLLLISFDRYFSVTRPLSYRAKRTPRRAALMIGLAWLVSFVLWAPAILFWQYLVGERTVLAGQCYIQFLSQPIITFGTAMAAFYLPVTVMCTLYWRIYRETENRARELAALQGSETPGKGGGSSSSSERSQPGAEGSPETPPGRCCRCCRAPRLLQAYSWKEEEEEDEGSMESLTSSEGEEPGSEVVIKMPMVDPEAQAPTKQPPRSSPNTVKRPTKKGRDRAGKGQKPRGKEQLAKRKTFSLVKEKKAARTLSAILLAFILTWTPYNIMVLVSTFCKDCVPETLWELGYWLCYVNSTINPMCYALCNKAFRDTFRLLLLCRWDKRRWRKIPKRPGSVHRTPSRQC

5-HT2C/5-HT2A = 5-HT2C/5-HT2A receptor affinity ratio; type: binding, human; conditions: Table 2; affinity ratio from data of Table 1
D4 dopamine receptor [2] = target: T1, D4 dopamine receptor (Rattus norvegicus, UniProt P30729); conditions: cited from earlier work
T1 sequence (P30729 1-387): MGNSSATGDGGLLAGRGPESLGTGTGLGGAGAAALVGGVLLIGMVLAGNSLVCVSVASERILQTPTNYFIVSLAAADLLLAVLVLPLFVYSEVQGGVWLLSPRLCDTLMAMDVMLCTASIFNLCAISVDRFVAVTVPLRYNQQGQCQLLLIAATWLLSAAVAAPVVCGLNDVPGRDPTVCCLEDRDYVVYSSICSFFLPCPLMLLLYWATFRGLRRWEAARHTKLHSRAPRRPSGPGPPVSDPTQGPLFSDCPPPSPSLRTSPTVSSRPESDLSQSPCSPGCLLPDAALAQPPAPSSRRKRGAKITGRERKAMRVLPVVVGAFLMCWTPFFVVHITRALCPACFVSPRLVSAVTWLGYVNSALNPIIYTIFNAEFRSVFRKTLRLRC

[3] = target: T2, M5 muscarinic acetylcholine receptor (Homo sapiens, UniProt P08912); conditions: expressed as KD; cited from earlier work
T2 sequence (P08912 1-532): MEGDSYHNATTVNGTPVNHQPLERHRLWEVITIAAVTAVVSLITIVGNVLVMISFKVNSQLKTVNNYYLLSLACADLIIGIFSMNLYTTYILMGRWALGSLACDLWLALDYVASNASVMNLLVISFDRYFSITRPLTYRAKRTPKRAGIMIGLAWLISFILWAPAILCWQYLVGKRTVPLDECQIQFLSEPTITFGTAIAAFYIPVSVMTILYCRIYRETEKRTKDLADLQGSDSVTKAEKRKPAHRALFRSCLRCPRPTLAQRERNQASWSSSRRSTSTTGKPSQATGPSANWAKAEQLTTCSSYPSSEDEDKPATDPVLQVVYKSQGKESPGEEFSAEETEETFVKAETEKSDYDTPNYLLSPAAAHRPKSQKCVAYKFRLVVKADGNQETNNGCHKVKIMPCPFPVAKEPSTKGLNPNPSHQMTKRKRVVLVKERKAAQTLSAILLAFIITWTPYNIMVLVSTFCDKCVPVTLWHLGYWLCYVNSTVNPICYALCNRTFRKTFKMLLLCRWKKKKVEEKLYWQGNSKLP

5-HT7 receptor [4] = target: 5-HT7 receptor (Rattus norvegicus, UniProt P32305); conditions: cited from earlier work
Sequence of 5-HT7 receptor (Rattus norvegicus, UniProt P32305) (P32305 whole entry): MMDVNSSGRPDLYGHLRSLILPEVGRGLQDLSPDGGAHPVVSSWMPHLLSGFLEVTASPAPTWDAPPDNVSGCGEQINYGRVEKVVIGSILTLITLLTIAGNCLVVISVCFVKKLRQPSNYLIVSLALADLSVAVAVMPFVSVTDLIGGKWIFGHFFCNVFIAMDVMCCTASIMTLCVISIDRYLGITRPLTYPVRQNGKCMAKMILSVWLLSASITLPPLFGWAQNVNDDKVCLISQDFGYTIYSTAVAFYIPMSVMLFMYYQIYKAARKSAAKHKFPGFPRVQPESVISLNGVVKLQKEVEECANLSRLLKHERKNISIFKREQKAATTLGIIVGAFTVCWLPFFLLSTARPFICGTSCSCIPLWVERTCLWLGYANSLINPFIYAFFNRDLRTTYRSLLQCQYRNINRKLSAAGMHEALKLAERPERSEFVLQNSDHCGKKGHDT

[5] = target: M3 muscarinic acetylcholine receptor (Homo sapiens, UniProt P20309); conditions: expressed as KD; cited from earlier work
Sequence of M3 muscarinic acetylcholine receptor (P20309 whole entry): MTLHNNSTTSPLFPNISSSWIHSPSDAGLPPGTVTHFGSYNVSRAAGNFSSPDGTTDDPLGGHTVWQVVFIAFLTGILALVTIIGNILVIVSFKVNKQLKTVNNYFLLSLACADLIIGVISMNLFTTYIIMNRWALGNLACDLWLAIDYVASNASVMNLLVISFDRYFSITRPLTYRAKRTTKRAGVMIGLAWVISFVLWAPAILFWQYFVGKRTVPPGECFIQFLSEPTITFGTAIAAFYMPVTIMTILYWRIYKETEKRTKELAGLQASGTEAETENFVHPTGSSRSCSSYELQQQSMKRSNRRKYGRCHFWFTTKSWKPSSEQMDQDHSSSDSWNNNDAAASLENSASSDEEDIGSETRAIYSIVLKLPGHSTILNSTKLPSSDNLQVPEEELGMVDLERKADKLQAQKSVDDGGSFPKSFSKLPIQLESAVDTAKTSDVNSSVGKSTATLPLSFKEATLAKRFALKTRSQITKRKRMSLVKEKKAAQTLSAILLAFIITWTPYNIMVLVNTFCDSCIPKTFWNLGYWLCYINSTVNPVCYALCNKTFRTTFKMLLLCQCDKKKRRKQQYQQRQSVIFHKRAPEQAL

5-HT2A/D2 = 5-HT2A/D2 receptor affinity ratio; type: binding, human; conditions: Table 2; affinity ratio from data of Table 1
[6] = target: M2 muscarinic acetylcholine receptor (Homo sapiens, UniProt P08172); conditions: expressed as KD; cited from earlier work
Sequence of M2 muscarinic acetylcholine receptor (P08172 whole entry): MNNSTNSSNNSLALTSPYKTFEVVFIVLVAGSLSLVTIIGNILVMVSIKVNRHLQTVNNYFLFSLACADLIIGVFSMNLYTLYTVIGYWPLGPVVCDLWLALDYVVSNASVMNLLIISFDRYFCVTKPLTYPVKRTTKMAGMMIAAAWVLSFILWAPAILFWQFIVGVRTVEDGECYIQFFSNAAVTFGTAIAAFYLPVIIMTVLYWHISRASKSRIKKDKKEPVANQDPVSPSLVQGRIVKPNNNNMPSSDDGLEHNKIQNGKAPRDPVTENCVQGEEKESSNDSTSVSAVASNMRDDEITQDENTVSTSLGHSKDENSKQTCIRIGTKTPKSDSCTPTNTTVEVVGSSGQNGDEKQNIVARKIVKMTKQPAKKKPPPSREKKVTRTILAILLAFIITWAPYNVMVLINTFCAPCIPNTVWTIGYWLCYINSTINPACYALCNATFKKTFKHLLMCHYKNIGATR

[7] = tested on: 5-HT2C receptor relative to 5-HT2A and D2 receptors; assay: Relative 5-HT2C affinity (formula I, sum of 5-HT2C/5-HT2A and 5-HT2C/D2 affinity ratios); conditions: Table 2; sum of affinity ratios from data of Table 1
D1 dopamine receptor [8] = target: D1 dopamine receptor (Rattus norvegicus, UniProt P18901); conditions: cited from earlier work
Sequence of D1 dopamine receptor (Rattus norvegicus, UniProt P18901) (P18901 whole entry): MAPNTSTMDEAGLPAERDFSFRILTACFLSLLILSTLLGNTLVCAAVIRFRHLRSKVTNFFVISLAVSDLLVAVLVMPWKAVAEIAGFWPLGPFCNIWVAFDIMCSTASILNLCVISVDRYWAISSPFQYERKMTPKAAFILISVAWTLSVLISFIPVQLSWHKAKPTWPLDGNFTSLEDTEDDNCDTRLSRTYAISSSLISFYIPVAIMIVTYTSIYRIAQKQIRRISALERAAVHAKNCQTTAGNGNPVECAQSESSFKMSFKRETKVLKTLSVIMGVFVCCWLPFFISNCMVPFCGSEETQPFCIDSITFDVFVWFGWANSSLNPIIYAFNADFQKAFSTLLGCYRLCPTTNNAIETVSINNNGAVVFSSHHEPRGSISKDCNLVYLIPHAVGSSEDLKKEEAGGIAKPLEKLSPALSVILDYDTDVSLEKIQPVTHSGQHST

[9] = target: T3, M4 muscarinic acetylcholine receptor (Homo sapiens, UniProt P08173); conditions: expressed as KD; cited from earlier work
T3 sequence (P08173 1-479): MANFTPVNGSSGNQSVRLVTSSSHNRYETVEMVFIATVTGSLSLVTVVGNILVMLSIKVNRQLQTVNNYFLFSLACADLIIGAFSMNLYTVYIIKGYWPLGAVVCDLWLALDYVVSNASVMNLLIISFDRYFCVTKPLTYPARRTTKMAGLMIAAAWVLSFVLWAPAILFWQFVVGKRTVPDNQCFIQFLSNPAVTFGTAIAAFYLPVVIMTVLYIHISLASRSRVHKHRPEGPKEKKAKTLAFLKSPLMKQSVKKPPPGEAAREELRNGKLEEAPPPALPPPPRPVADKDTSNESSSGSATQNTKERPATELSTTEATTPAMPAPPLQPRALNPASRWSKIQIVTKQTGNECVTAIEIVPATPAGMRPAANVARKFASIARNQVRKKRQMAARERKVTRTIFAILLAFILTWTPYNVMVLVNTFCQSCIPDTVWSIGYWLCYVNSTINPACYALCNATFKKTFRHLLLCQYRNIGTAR

5-HT1A receptor [10] = target: 5-HT1A receptor (Homo sapiens, UniProt P08908); conditions: cited from earlier work
Sequence of 5-HT1A receptor (Homo sapiens, UniProt P08908) (P08908 whole entry): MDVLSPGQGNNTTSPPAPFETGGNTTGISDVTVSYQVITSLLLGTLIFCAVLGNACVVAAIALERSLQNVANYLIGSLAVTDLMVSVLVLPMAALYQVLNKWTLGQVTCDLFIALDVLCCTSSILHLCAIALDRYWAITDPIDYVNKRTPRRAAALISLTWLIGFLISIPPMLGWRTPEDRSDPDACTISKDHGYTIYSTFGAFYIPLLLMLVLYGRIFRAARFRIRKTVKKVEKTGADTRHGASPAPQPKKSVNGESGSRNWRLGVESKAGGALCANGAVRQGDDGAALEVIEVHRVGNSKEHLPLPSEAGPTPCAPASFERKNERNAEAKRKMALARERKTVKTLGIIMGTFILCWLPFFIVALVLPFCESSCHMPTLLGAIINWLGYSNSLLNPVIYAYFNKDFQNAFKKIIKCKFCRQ

D4 dopamine receptor [11] = target: T4, D4 dopamine receptor (Homo sapiens, UniProt P21917); conditions: human; cited from earlier work
T4 sequence (P21917 1-419): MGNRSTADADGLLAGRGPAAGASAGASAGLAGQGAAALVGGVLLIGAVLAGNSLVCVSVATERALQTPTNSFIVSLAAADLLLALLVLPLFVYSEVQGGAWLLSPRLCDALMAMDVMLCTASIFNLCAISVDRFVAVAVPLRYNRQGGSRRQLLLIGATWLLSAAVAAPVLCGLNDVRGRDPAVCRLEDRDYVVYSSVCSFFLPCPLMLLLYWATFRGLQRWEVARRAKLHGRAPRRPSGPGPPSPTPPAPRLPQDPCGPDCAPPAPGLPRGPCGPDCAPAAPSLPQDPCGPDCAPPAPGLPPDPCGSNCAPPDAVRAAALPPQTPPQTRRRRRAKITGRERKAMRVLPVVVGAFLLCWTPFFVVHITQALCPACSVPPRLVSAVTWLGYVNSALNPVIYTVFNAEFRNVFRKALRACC

5-HT7 receptor [12] = target: 5-HT7 receptor (Mus musculus, UniProt P32304); conditions: cited from earlier work
Sequence of 5-HT7 receptor (Mus musculus, UniProt P32304) (P32304 whole entry): as the sequence (P32305 whole entry) above, with G27R, P39S, L53P, P279S, S438C counted along it

α2-adrenoceptor [13] = conditions: species for α2 not stated; cited from earlier work
5-HT3 receptor = target: T5, 5-HT3 receptor (Mus musculus, UniProt P23979); conditions: cited from earlier work
T5 sequence (P23979 24-489): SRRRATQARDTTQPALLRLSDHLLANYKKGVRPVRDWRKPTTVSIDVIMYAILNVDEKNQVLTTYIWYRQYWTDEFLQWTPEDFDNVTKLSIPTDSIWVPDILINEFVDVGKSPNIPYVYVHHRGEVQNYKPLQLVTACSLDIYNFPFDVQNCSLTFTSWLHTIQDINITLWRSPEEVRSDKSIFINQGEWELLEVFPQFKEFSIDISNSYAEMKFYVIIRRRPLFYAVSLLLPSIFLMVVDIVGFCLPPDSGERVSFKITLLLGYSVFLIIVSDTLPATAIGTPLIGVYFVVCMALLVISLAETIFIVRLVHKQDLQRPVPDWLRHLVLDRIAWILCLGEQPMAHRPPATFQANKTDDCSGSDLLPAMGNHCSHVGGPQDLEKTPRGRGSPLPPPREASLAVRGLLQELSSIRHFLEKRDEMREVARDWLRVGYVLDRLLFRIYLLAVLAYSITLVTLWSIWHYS

[14] = target: D2-S (short form of D2 receptor) (Homo sapiens, UniProt P14416); conditions: cited from earlier work
[15] = target: mACh, muscarinic acetylcholine receptor; conditions: rat; cited from earlier work
5-HT2C receptor = target: T6, 5-HT2C receptor (Sus scrofa, UniProt K7GSR7); conditions: pig; cited from earlier work
T6 sequence (K7GSR7 1-457): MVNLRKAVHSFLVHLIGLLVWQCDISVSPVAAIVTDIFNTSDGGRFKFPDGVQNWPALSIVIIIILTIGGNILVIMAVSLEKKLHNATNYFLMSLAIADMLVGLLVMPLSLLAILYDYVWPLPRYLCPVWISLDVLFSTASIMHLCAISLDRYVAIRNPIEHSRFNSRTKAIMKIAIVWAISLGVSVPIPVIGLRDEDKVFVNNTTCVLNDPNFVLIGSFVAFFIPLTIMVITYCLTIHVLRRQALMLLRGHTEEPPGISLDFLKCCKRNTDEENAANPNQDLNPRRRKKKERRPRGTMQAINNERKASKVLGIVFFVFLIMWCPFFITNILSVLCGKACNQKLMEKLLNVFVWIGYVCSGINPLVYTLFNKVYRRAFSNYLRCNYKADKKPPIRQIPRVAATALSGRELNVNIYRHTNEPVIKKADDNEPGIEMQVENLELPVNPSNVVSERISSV

H1 histamine receptor = H1 histamine receptor (Cavia porcellus, UniProt P31389); conditions: guinea-pig; cited from earlier work
Sequence of H1 histamine receptor (P31389 whole entry): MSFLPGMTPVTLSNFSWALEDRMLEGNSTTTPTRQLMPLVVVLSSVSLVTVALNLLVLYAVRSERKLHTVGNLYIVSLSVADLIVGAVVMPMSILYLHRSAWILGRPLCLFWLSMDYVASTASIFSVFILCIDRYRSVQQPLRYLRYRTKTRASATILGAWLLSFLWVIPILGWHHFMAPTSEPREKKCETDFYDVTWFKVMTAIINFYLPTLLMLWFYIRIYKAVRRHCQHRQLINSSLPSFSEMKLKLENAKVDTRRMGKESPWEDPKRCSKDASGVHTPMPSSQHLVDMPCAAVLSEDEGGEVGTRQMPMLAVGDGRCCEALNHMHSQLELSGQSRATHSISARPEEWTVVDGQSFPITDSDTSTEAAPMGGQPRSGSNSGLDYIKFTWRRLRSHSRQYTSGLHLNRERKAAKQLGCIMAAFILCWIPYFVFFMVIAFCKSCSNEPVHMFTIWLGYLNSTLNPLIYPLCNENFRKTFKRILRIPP

α1-adrenoceptor [16] = conditions: species for α1 not given; cited from earlier work
sigma, σ receptor = conditions: guinea-pig; cited from earlier work
[17] = target: D2-L (long form of D2 receptor) (Homo sapiens, UniProt P14416); conditions: cited from earlier work
Sequence of D2-L (long form of D2 receptor) (P14416 whole entry): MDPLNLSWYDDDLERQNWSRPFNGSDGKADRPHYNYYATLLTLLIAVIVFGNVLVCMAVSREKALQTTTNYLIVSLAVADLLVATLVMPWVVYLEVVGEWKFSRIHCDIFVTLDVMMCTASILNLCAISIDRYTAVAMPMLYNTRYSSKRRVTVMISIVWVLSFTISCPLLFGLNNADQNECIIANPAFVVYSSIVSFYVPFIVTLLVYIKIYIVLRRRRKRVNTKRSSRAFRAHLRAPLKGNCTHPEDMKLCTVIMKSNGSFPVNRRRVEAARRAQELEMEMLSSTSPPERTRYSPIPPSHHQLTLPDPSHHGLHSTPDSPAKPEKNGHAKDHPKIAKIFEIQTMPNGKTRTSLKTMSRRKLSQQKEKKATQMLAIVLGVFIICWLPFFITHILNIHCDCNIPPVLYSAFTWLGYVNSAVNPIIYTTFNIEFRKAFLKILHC

5-HT1A receptor [18] = target: T7, 5-HT1A receptor (Rattus norvegicus, UniProt P19327); conditions: cited from earlier work
T7 sequence (P19327 1-422): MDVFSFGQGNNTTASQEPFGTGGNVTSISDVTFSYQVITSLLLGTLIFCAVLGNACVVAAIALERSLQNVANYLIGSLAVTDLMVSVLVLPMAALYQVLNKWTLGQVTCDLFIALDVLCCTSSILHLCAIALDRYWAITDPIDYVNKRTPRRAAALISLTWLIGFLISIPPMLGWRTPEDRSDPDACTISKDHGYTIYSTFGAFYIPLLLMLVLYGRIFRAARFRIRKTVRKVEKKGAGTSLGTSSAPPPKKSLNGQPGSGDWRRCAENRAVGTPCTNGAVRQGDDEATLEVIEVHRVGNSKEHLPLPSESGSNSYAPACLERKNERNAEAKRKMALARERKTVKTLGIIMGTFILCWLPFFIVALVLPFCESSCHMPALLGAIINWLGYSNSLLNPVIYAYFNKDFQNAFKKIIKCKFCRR

D1 dopamine receptor [19] = target: D1 dopamine receptor (Homo sapiens, UniProt P21728); conditions: cited from earlier work
Sequence of D1 dopamine receptor (Homo sapiens, UniProt P21728) (P21728 whole entry): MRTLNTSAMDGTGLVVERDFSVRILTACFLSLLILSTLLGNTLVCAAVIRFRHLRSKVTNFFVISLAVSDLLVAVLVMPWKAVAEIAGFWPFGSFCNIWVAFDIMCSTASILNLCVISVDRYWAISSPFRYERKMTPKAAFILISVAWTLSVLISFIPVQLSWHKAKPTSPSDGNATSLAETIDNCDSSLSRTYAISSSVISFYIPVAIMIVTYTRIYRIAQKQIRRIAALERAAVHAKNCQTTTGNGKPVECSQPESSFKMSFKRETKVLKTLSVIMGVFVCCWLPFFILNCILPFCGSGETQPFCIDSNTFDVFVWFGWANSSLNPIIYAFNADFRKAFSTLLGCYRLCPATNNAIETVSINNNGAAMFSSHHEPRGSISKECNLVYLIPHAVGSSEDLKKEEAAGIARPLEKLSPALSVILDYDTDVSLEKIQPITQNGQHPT

α2-adrenoceptor [20] = conditions: human, expressed as KD; cited from earlier work
[21] = target: mACh, muscarinic acetylcholine receptor; conditions: human, expressed as KD; cited from earlier work
α1-adrenoceptor [22] = conditions: human, expressed as KD; cited from earlier work

Sequence of 5-HT6 receptor (P31388 whole entry): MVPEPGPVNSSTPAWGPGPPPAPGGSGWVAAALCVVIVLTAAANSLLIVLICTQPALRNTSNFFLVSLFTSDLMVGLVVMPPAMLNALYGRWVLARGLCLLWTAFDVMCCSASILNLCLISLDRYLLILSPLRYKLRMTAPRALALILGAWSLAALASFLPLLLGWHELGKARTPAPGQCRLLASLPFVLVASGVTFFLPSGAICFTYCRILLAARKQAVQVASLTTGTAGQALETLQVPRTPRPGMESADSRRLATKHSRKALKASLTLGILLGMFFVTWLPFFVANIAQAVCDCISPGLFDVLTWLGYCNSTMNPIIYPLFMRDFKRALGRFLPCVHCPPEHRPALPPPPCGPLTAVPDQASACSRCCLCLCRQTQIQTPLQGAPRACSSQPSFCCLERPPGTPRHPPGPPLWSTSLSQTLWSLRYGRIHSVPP

CN1CCN(C2=Nc3cc(F)ccc3Cc3ccccc32)CC1 [Fluperlapine]
5-HT6 affinity value (−logKi) (5-HT6 receptor): 7.8^2 | 5-HT2C/D2 (2C/D2) (5-HT2C/D2): 1.18 | M1 affinity value (−log KD) [1]: 8.1^15 | 5-HT2C/5-HT2A (2C/2A) (5-HT2C/5-HT2A): 0.95 | D4 affinity value (−logKi) (D4 dopamine receptor [2]): 6.9^4 | M5 affinity value (−log KD) [3]: 7.7^15 | 5-HT7 affinity value (−logKi) (5-HT7 receptor [4]): 8.3^2 | M3 affinity value (−log KD) [5]: 7.4^15 | 5-HT2A/D2 (5-HT2A/D2): 1.25 | M2 affinity value (−log KD) [6]: 7.1^15 | (2C/2A) + (2C/D2) [7]: 2.13 | D1 affinity value (−logKi) (D1 dopamine receptor [8]): 6.8^8 | M4 affinity value (−log KD) [9]: 7.9^15

CN1CCN(C2=Nc3ccccc3Oc3ccc(Cl)cc32)CC1 [Loxapine]
M1 affinity value (−log KD) [1]: 7.2^15 | D4 affinity value (−logKi) (D4 dopamine receptor [2]): 7.9^4 | M5 affinity value (−log KD) [3]: 6.6^15 | M3 affinity value (−log KD) [5]: 6.4^15 | D1 affinity value (−logKi) (D1 dopamine receptor [8]): 7.5^18 | M4 affinity value (−log KD) [9]: 6.5^15 | 5-HT1A affinity value (−logKi) (5-HT1A receptor [10]): 5.5^5

NC(=O)C1(N2CCCCC2)CCN(CCCC(=O)c2ccc(F)cc2)CC1 [Pipamperone]
D4 affinity value (−logKi) (D4 dopamine receptor [11]): 8.3^6 | 5-HT7 affinity value (−logKi) (5-HT7 receptor [12]): 6.8^6 | α2 affinity value (−logKi) (α2-adrenoceptor [13]): 6.2^6 | 5-HT3 affinity value (−logKi) (5-HT3 receptor): <5.3^6 | D2-S affinity value (−logKi) [14]: 7.0^6 | mACh affinity value (−logKi) [15]: <5.3^6 | 5-HT2C affinity value (−logKi) (5-HT2C receptor): 6.9^6 | (2C/2A) + (2C/D2) [7]: 1.83 | H1 affinity value (−logKi) (H1 histamine receptor): <5.3^6 | α1 affinity value (−logKi) (α1-adrenoceptor [16]): 7.2^6 | sigma affinity value (−logKi) (sigma, σ receptor): 7.3^6 | D2-L affinity value (−logKi) [17]: 6.9^6

CN(C)CCOC1=Cc2ccccc2Sc2ccc(Cl)cc21 [Zotepine]
5-HT6 affinity value (−logKi) (5-HT6 receptor): 9.0^2 | D4 affinity value (−logKi) (D4 dopamine receptor [11]): 7.4^6 | 5-HT1A affinity value (−logKi) (5-HT1A receptor [18]): 6.5^6 | D4 affinity value (−logKi) (D4 dopamine receptor [2]): 8.2^4 | M5 affinity value (−log KD) [3]: 6.6^15 | 5-HT7 affinity value (−logKi) (5-HT7 receptor [4]): 8.8^2 | mACh affinity value (−logKi) [15]: 6.3^6 | 5-HT2C affinity value (−logKi) (5-HT2C receptor): 8.5^6 | (2C/2A) + (2C/D2) [7]: 2.02 | H1 affinity value (−logKi) (H1 histamine receptor): 8.5^6 | M4 affinity value (−log KD) [9]: 7.1^15 | α1 affinity value (−logKi) (α1-adrenoceptor [16]): 8.5^6 | sigma affinity value (−logKi) (sigma, σ receptor): 6.3^6

CN1CCN(CC/C=C2/c3ccccc3Sc3ccc(S(=O)(=O)N(C)C)cc32)CC1 [Thiothixene]
D1 affinity value (−logKi) (D1 dopamine receptor [19]): 6.5^9 | 5-HT6 affinity value (−logKi) (5-HT6 receptor): 7.4^2 | α2 affinity value (−log KD) (α2-adrenoceptor [20]): 6.7^16 | mACh affinity value (−log KD) [21]: 5.5^16 | D4 affinity value (−logKi) (D4 dopamine receptor [2]): 7.1^4 | M5 affinity value (−log KD) [3]: 5.4^15 | 5-HT7 affinity value (−logKi) (5-HT7 receptor [4]): 7.9^2 | M3 affinity value (−log KD) [5]: 5.8^15 | M2 affinity value (−log KD) [6]: 5.7^15 | (2C/2A) + (2C/D2) [7]: 1.43 | M4 affinity value (−log KD) [9]: 5.8^15 | α1 affinity value (−log KD) (α1-adrenoceptor [22]): 8.0^16
